Here are results for 35 compounds from US7183276B2, “Azole compounds” (Takeda Pharmaceutical Company Limited, priority 2002, dated 2007).

The structures appear in SMILES notation. Where only a bound is given, the exact number is not on record here.

The melting point is the temperature, or range, at which the solid turns liquid.

For `CNS(=O)(=O)Cc1ccc(NC(=O)CCc2oc(-n3ccnc3)nc2-c2ccc(Cl)cc2)cc1` [Example 44, 3-[2-(1H-imidazol-1-yl)-4-(4-chlorophenyl)-5-oxazolyl]-N-(4-{[(methylamino)sulfonyl]methyl}phenyl)propionamide], the melting point lay in the range of 224 to 225 °C. The same measure for `COC(=O)c1ccc(NC(=O)CCc2sc(-c3ccccc3)nc2-c2ccc(Cl)cc2)cc1` [Example 45, 3-[4-(4-chlorophenyl)-2-phenyl-5-thiazolyl]-N-[4-(methoxycarbonyl)phenyl]propionamide]: 177 to 178 °C; for `NC(=O)CCc1sc(-c2ccccc2)nc1-c1ccc(Cl)cc1` [Example 46, 3-[4-(4-chlorophenyl)-2-phenyl-5-thiazolyl]propionamide]: 175 to 176 °C. Turning to `CCNC(=O)CCCc1oc(-c2ccccc2)nc1-c1ccc(Cl)cc1` [Example 49, N-ethyl-4-[4-(4-chlorophenyl)-2-phenyl-5-oxazolyl]butanamide], the melting point fell in the range of 127 to 128 °C. The same measure for `COC(=O)c1ccc(NC(=O)CCCc2oc(-c3ccccc3)nc2-c2ccc(Cl)cc2)cc1` [Example 50, 4-[4-(4-chlorophenyl)-2-phenyl-5-oxazolyl]-N-[4-(methoxycarbonyl)phenyl]butanamide]: 170 to 171 °C; for `O=C(CCCc1oc(-c2ccccc2)nc1-c1ccc(Cl)cc1)N1CCN(c2ccccc2)CC1` [Example 51, 1-{4-[4-(4-chlorophenyl)-2-phenyl-5-oxazolyl]butanoyl}-4-phenylpiperazine]: 104 to 105 °C; for `NC(=O)CCCc1oc(-c2ccccc2)nc1-c1ccc(Cl)cc1` [Example 52, 4-[4-(4-chlorophenyl)-2-phenyl-5-oxazolyl]butanamide]: 168 to 169 °C.

The compound `NC(=O)/C=C/c1oc(-c2ccccc2)nc1-c1ccc(Cl)cc1` [Example 55, (2E)-3-[4-(4-chlorophenyl)-2-phenyl-5-oxazolyl]propenamide] came in with a melting point of 240 to 241 °C.

As to `CCOC(=O)c1ccc(NC(=O)/C=C/c2oc(-c3ccccc3)nc2-c2ccc(Cl)cc2)cc1` [Example 56, (2E)-3-[4-(4-chlorophenyl)-2-phenyl-5-oxazolyl]-N-[4-(ethoxycarbonyl)phenyl]propenamide], the melting point was in the range of 135 to 140 °C. As for `O=C(CCc1oc(-c2ccccc2)nc1-c1ccc(Cl)cc1)Nc1ccc(C(=O)O)cc1` [Example 63, 4-({3-[4-(4-chlorophenyl)-2-phenyl-5-oxazolyl]propanoyl}amino)benzoic acid], the melting point lay in the range of 243 to 244 °C.

`O=C(CCc1sc(-c2ccccc2)nc1-c1ccc(Cl)cc1)Nc1ccc(C(=O)O)cc1` [Example 64, 4-({3-[4-(4-chlorophenyl)-2-phenyl-5-thiazolyl]propanoyl}amino)benzoic acid]: the melting point lay in the range of 294 to 295 °C. The same measure for `O=C(/C=C/c1oc(-c2ccccc2)nc1-c1ccc(Cl)cc1)Nc1ccc(C(=O)O)cc1` [Example 65, 4-({(2E)-3-[4-(4-chlorophenyl)-2-phenyl-5-oxazolyl]propenoyl}amino)benzoic acid]: 275 to 276 °C; for `NC(=O)c1ccc(NC(=O)CCc2oc(-c3ccccc3)nc2-c2ccc(Cl)cc2)cc1` [Example 66, 4-({3-[4-(4-chlorophenyl)-2-phenyl-5-oxazolyl]propanoyl}amino)benzamide]: 268 to 269 °C. The same measure for `NC(=O)c1ccc(NC(=O)CCc2sc(-c3ccccc3)nc2-c2ccc(Cl)cc2)cc1` [Example 67, 4-({3-[4-(4-chlorophenyl)-2-phenyl-5-thiazolyl]propanoyl}amino)benzamide]: ≥ 300 °C (dec.). Under `NC(=O)c1ccc(NC(=O)/C=C/c2oc(-c3ccccc3)nc2-c2ccc(Cl)cc2)cc1` [Example 68, 4-({(2E)-3-[4-(4-chlorophenyl)-2-phenyl-5-oxazolyl]propenoyl}amino)benzamide] stands 274 to 275 °C; under `COc1ccccc1NC(=O)CCc1oc(-n2ccnc2C)nc1-c1ccc(Cl)cc1` [Example 71, 3-[4-(4-chlorophenyl)-2-(2-methyl-1-imidazolyl)-5-oxazolyl]-N-(2-methoxyphenyl)propionamide], 153 to 154 °C.

As for `CCOC(=O)Cc1ccc(NC(=O)CCc2oc(-n3cnc4ccccc43)nc2-c2ccc(Cl)cc2)cc1` [Example 76, 3-[2-(1H-benzimidazol-1-yl)-4-(4-chlorophenyl)-5-oxazolyl]-N-[4-(ethoxycarbonylmethyl)phenyl]propionamide], the melting point lay in the range of 181 to 182 °C. The same measure for `O=C(CCc1oc(-n2cnc3ccccc32)nc1-c1ccc(Cl)cc1)Nc1ccc(Cl)cc1` [Example 79, 3-[2-(1H-benzimidazol-1-yl)-4-(4-chlorophenyl)-5-oxazolyl]-N-(4-chlorophenyl)propionamide]: 248 to 249 °C.

`CN(Cc1ccc(NC(=O)CCc2oc(-n3cnc4ccccc43)nc2-c2ccc(Cl)cc2)cc1)C1CCOCC1` [Example 87, 3-[2-(1H-benzimidazol-1-yl)-4-(4-chlorophenyl)-5-oxazolyl)-N-(4-{[N-methyl-N-(4-tetrahydropyranyl)amino]methyl}phenyl)propionamide] registered a melting point of 182 to 184 °C. Under `O=C(CCc1oc(-n2cnc3ccccc32)nc1-c1ccc(Cl)cc1)Nc1ccc(CN2CCCCC2)cc1` [Example 88, 3-[2-(1H-benzimidazol-1-yl)-4-(4-chlorophenyl)-5-oxazolyl]-N-{4-[(1-piperidinyl)methyl]phenyl}propionamide] stands 194 to 195 °C; under `N#CCc1ccc(NC(=O)CCc2oc(-n3cnc4ccccc43)nc2-c2ccc(Cl)cc2)cc1` [Example 89, 3-[2-(1H-benzimidazol-1-yl)-4-(4-chlorophenyl)-5-oxazolyl]-N-[4-(cyanomethyl)phenyl]propionamide], 212 to 214 °C; under `O=C(O)Cc1ccc(NC(=O)CCc2oc(-n3cnc4ccccc43)nc2-c2ccc(Cl)cc2)cc1` [Example 90, 4-({3-[2-(1H-benzimidazol-1-yl)-4-(4-chlorophenyl)-5-oxazolyl]propanoyl)amino}phenylacetic acid], 247 to 248 °C. Under `COC(=O)c1ccc(NC(=O)CCc2oc(-n3cnc4ccccc43)nc2-c2ccc(Cl)cc2)cc1` [Example 91, 3-[2-(1H-benzimidazol-1-yl)-4-(4-chlorophenyl)-5-oxazolyl]-N-[4-(methoxycarbonyl)phenyl]propionamide] stands 249 to 250 °C. Under `O=C(CCc1oc(-n2cnc3ccccc32)nc1-c1ccc(Cl)cc1)NCCc1ccccn1` [Example 92, 3-[2-(1H-benzimidazol-1-yl)-4-(4-chlorophenyl)-5-oxazolyl]-N-[2-(2-pyridinyl)ethyl]propionamide] stands 150 to 151 °C; under `O=C(CCc1oc(-n2cnc3ccccc32)nc1-c1ccc(Cl)cc1)N1CCN(c2ccccn2)CC1` [Example 93, 1-{3-[2-(1H-benzimidazol-1-yl)-4-(4-chlorophenyl)-5-oxazolyl]propanoyl}-4-(2-pyridinyl)piperazine], 174 to 176 °C. In turn, `CN(Cc1ccc(NC(=O)CCc2oc(-c3ccccc3)nc2-c2ccc(Cl)cc2)cc1)C1CCOCC1` [Example 94, 3-[4-(4-chlorophenyl)-2-phenyl-5-oxazolyl]-N-(4-{[N-methyl-N-(4-tetrahydropyranyl)amino]methyl}phenyl)propionamide] showed a melting point of 154 to 155 °C. `O=C(CCc1oc(-c2ccccc2)nc1-c1ccc(Cl)cc1)Nc1ccc(CN2CCCCC2)cc1` [Example 95, 3-[4-(4-chlorophenyl)-2-phenyl-5-oxazolyl]-N-{4-[(1-piperidinyl)methyl]phenyl}propionamide] displayed a melting point of 223 to 225 °C.

As to `CSc1ccc(NC(=O)CCc2oc(-n3cnc4ccccc43)nc2-c2ccc(Cl)cc2)cc1` [Example 96, 3-[2-(1H-benzimidazol-1-yl)-4-(4-chlorophenyl)-5-oxazolyl]-N-{4-(methylsulfanyl)phenyl}propionamide], the melting point was 276 to 277 °C. The same measure for `O=C(CCCc1oc(-n2cnc3ccccc32)nc1-c1ccc(Cl)cc1)Nc1ccc(S(=O)(=O)Nc2nccs2)cc1` [Example 104, 4-[2-(1H-benzimidazol-1-yl)-4-(4-chlorophenyl)-5-oxazolyl]-N-(4-{[(2-thiazolyl)amino]sulfonyl}phenyl)butanamide]: 243 to 244 °C. On to `N#CCc1ccc(NC(=O)CCc2oc(-c3ccccc3)nc2-c2ccc(Cl)cc2)cc1` [Example 105, 3-[4-(4-chlorophenyl)-2-phenyl-5-oxazolyl]-N-[4-(cyanomethyl)phenyl]propionamide], for which the melting point fell in the range of 212 to 214 °C. Turning to `CCN(CC)C(=O)Cc1ccc(NC(=O)CCc2oc(-n3cnc4ccccc43)nc2-c2ccc(Cl)cc2)cc1` [Example 106, 2-[4-({3-[2-(1H-benzimidazol-1-yl)-4-(4-chlorophenyl)-5-oxazolyl]propanoyl}amino)phenyl]-N,N-diethylacetamide], the melting point lay in the range of 209 to 210 °C. Under `O=C(CCc1oc(-n2cnc3ccccc32)nc1-c1ccc(Cl)cc1)Nc1cccc(CO)c1` [Example 108, 3-[2-(1H-benzimidazol-1-yl)-4-(4-chlorophenyl)-5-oxazolyl]-N-[3-(hydroxymethyl)phenyl]propionamide] stands 206 to 207 °C. The same measure for `O=C(CCc1oc(-n2cnc3ccccc32)nc1-c1ccc(Cl)cc1)Nc1ccccc1CO` [Example 109, 3-[2-(1H-benzimidazol-1-yl)-4-(4-chlorophenyl)-5-oxazolyl]-N-[2-(hydroxymethyl)phenyl]propionamide]: 159 to 160 °C; for `N#CCc1cccc(NC(=O)CCc2oc(-n3cnc4ccccc43)nc2-c2ccc(Cl)cc2)c1` [Example 110, 3-[2-(1H-benzimidazol-1-yl)-4-(4-chlorophenyl)-5-oxazolyl]-N-[3-(cyanomethyl)phenyl]propionamide]: 188 to 189 °C; for `N#CCc1ccccc1NC(=O)CCc1oc(-n2cnc3ccccc32)nc1-c1ccc(Cl)cc1` [Example 111, 3-[2-(1H-benzimidazol-1-yl)-4-(4-chlorophenyl)-5-oxazolyl]-N-[2-(cyanomethyl)phenyl]propionamide]: 235 to 236 °C.
